Assay results as given in ChEMBL document CHEMBL2406993, “Deconstruction of a nutlin: dissecting the binding determinants of a potent protein-protein interaction inhibitor” (ACS Med Chem Lett, 2013).
The source made the active and inactive calls. No cut-off for these calls is given here.

What was measured:
Homo sapiens [1] = species: Homo sapiens; test: Inhibition of Humanized-Xenopus MDM2 (13-119 amino acids) interaction with p53 at 100 uM by SPR analysis
Homo sapiens [2] = species: Homo sapiens; test: Inhibition of [15N]-labeled humanized-Xenopus MDM2 (13-119 amino acids) interaction with p53 at 1 mM by NMR method
[3] = Inhibition of Humanized-Xenopus MDM2 (13-119 amino acids) interaction with p53 by SPR analysis; design: species or system Homo sapiens
Homo sapiens [4] = species: Homo sapiens; test: Inhibition of Humanized-Xenopus MDM2 (13-119 amino acids) interaction with p53 at 1 to 2.5 mM by SPR analysis
Homo sapiens [5] = species: Homo sapiens; test: Inhibition of [15N]-labeled humanized-Xenopus MDM2 (13-119 amino acids) interaction with p53 at 2 mM by NMR method
Homo sapiens [6] = species: Homo sapiens; test: Inhibition of [15N]-labeled humanized-Xenopus MDM2 (13-119 amino acids) interaction with p53 at 0.5 mM by NMR method
Homo sapiens [7] = species: Homo sapiens; test: Inhibition of [15N]-labeled humanized-Xenopus MDM2 (13-119 amino acids) interaction with p53 at 0.4 mM by NMR method

Compound	inhibition (Homo sapiens [2])	Kd [3]	inhibition (Homo sapiens [4])	also measured
CCOc1cc(C(C)(C)C)ccc1C1=NCCN1C(=O)N1CCN(CCCS(C)(=O)=O)CC1	inactive	–	–	inhibition (Homo sapiens [1]): inactive
CC1=N[C@@](C)(c2ccc(Cl)cc2)[C@@](C)(c2ccc(Cl)cc2)N1C(=O)N1CCN(CCCS(C)(=O)=O)CC1	Active	14 µM	–	–
CCOc1cc(C(C)(C)C)ccc1-c1ncc[nH]1	–	–	inactive	inhibition (Homo sapiens [5]): inactive
Clc1ccccc1	inactive	–	inactive	–
CCOc1cc(C(C)(C)C)ccc1C1=N[C@@](C)(c2ccc(Cl)cc2)[C@@](C)(c2ccc(Cl)cc2)N1C(=O)N1CCN(CCCS(C)(=O)=O)CC1 [RO-5045337]	–	0.22 µM	–	inhibition (Homo sapiens [6]): Active
CCOc1cc(C(C)(C)C)ccc1C1=N[C@@](C)(c2ccc(Cl)cc2)[C@@](C)(c2ccc(Cl)cc2)N1	–	20 µM	–	inhibition (Homo sapiens [7]): Active
CCOc1cc(C(C)(C)C)ccc1C1=NCC(c2ccc(Cl)cc2)N1 (configuration not stated)	–	–	–	inhibition (Homo sapiens [1]): inactive; inhibition (Homo sapiens [5]): Active
c1c[nH]cn1	inactive	–	inactive	–
CC1=N[C@@H](c2ccccc2)[C@@H](c2ccccc2)N1	–	–	inactive	inhibition (Homo sapiens [5]): inactive
CC1=N[C@@H](c2ccc(Cl)cc2)[C@@H](c2ccc(Cl)cc2)N1	–	26 µM	–	inhibition (Homo sapiens [7]): Active
CCOc1cc(C(C)(C)C)ccc1C1=NC(c2ccccc2)CN1C(=O)N1CCN(CCCS(C)(=O)=O)CC1 (configuration not stated)	Active	1000 µM	–	–
